Converted amounts (≈) assume the structure as drawn.
Tests used:
[1] = Antioxidant activity assessed as DPPH radical scavenging activity; format: functional
[2] = Antioxidant activity assessed as hydrogen peroxide scavenging activity; format: functional

| IC50 [1] | IC50 [2] | SMILES |
| --- | --- | --- |
| 0.09 µg/mL (≈ 0.144 µM) | 2.6 µg/mL (≈ 4.16 µM) | C[C@@H]1O[C@@H](O[C@@H]2[C@@H](O)[C@H](OCCc3ccc(O)c(O)c3)O[C@H](CO)[C@H]2OC(=O)/C=C/c2ccc(O)c(O)c2)[C@H](O)[C@H](O)[C@H]1O [ACETOSIDE] |
| 0.05 µg/mL (≈ 0.284 µM) | 4.1 µg/mL (≈ 23.3 µM) | O=C1O[C@H]([C@@H](O)CO)C(O)=C1O [ASCORBIC ACID] |
| 0.16 µg/mL (≈ 0.256 µM) | 3 µg/mL (≈ 4.8 µM) | C[C@@H]1O[C@@H](O[C@@H]2[C@@H](O)[C@H](OCCc3ccc(O)c(O)c3)O[C@H](COC(=O)/C=C/c3ccc(O)c(O)c3)[C@H]2O)[C@H](O)[C@H](O)[C@H]1O [ISOACTEOSIDE] |

Source: ChEMBL document CHEMBL5131430, “Free radical scavenging activities of verbascoside and isoverbascoside from the leaves of Odontonema strictum (Acanthaceae)” (Bioorg Med Chem Lett, 2022)
